In PMC3833293 (ACS Chemical Biology, 2013):

Key:
[1] = test system: wild-type and drug-resistant HIV clones; assay: Monogram drug susceptibility assays, profile across viral panel; assay type: cell-based, HIV-1; settings: weakest EC50 to a variant divided by that to wild-type
[2] = molecular target: wild-type HIV-1 protease (Human immunodeficiency virus type 1 group M subtype B, UniProt P03369); assay: FRET enzyme inhibition assay, wild-type protease; assay type: biochemical
[3] = test system: wild-type HIV-1 protease and drug-resistant variants M1, M2, M3, M4; assay: FRET enzyme inhibition, profile across wild type and mutant panel; assay type: biochemical; settings: weakest Ki to a drug-resistant variant divided by Ki to wild type
[4] = molecular target: HIV-1 protease M4 (I50V, A71V) (Human immunodeficiency virus type 1 group M subtype B, UniProt P03369, A561V/I540V); assay: FRET enzyme inhibition assay, M4 variant; assay type: biochemical
[5] = molecular target: HIV-1 protease M2 (D30N, N88D) (Human immunodeficiency virus type 1 group M subtype B, UniProt P03369, D520N/N578D); assay: FRET enzyme inhibition assay, M2 variant; assay type: biochemical

## CC[C@H](C)[C@H](NC(C)=O)C(=O)N[C@@H](Cc1ccccc1)[C@H](O)CN(CC(C)C)S(=O)(=O)c1ccc(OC)cc1 [AF-68]
[1]
  worst-fold activity loss: 4.4 fold

## CC[C@H](C)CN(C[C@@H](O)[C@H](Cc1ccccc1)NC(=O)c1cccc(O)c1)S(=O)(=O)c1ccc(-c2ccno2)s1 [AF-71]
[2]; AF-71 vs AD-93, AF-80 vs KB-83
  loss in affinity to wild-type protease compared to parent compound: 72 fold

## O=C(N[C@@H](Cc1ccccc1)[C@H](O)CN(CC1CCCCC1)S(=O)(=O)c1ccc2ncsc2c1)c1cccc(O)c1 [AF-72]
[1]
  worst-fold activity loss: 2.6 fold

## COc1ccc(S(=O)(=O)N(CC2CCCCC2)C[C@@H](O)[C@H](Cc2ccccc2)NC(=O)c2cccc(O)c2)cc1 [AF-77]
[1]
  worst-fold activity loss: 2.2 fold

## COc1ccc(S(=O)(=O)N(CCCc2ccccc2)C[C@@H](O)[C@H](Cc2ccccc2)NC(=O)c2cccc(O)c2)cc1 [AF-78]
[3]
  worst-fold affinity loss: 98 fold

## CC[C@H](C)CN(C[C@@H](O)[C@H](Cc1ccccc1)NC(=O)[C@@H](NC(C)=O)[C@@H](C)CC)S(=O)(=O)c1ccc2ncsc2c1 [AG-23]
[1]
  worst-fold activity loss: 3.2 fold
[4]
  Ki: 92 ± 25 pM
[2]; Ki, wild type, mean ± standard deviation
  Ki: 21 ± 9 pM
[5]
  Ki: 28 ± 25 pM
